Experiment: Solubility of genistin in isoflavone containing eluate as a function of pH (FIG. 1)
Assay type: physicochemical
Excerpt: Concentrations of isoflavones in a supernatant are shown, making each isoflavone concentration at the time of elution 100.).

solubility of genistin in an isoflavone containing eluate (pHs of not less than 10): extremely high | solubility of genistin in an isoflavone containing eluate (pHs of not more than 9.5): extremely low
SMILES: O=c1c(-c2ccc(O)cc2)coc2cc(O[C@@H]3O[C@H](CO)[C@@H](O)[C@H](O)[C@H]3O)cc(O)c12 [genistin]
